IC50 and EC50 data for four compounds are collected here from patent US5594027A, “Aminocycloalkanobenzodioxoles as beta-3 selective adrenergic agents” (American Cyanamid Company, priority 1995, dated 1997).

Structures can show the parent of a compound that is named as a salt.

Assay [1] deals with T1, β1-adrenergic receptor (Rattus norvegicus, UniProt P18090).
T1 construct: membranes from rat heart; from tissue; host or cells: rat heart membranes
In words: Heart membrane binding (β1-effect), [125I]iodocyanopindolol. The note with it: rat heart membranes, 1 hour. From the text:
(§1) β-Adrenergic receptors can be divided into β1, β2 and β 3-subtypes. Activation of β1 -receptors invokes increases in heart rate while activation of β2 -receptors stimulates glycogen breakdown in muscle and thereby prevents glycogen synthesis. Activation of β3 -receptors stimulates lipolysis (the breakdown of adipose tissue triglycerides to glycerol and free fatty acids), and thereby promotes the loss of fat mass. Ccmpounds that stimulate β3 -receptors will have antiobesity activity. In addition, they have hypoglycemic or anti-diabetic activity, but the mechanism of this effect is unknown. A compound that selectively stimulates β3 -receptors, i.e. has little or no β1 or β2 -activity, will have the desired anti-diabetic and/or anti-obesity activity, but without the undesired effects of increased heart rate (β1 -effect) or muscle tremor (β2 -effect).
(§2) Selectivity of a compound is determined using the following procedures.
Binding assays for β1 -effect are carried out by the use of membranes from rat heart, and β2 -effect by the use of membranes from rat lung by the method described in Neve, et al., J. Pharmacol. Exp. Ther., 1985, 235, 657-664 with the following exceptions:
1. the incubation volume is 0.5 ml,
2. the incubation time is 1 hour,
3. the radioligand is [^125 I]iodocyanopindolol,
4. (-)-isoproterenol (50 μM) is used to define specific binding, and
5. the filters are washed at 4° C.

Assay [2] deals with T2, β3-adrenergic receptor (Rattus norvegicus, UniProt P26255).
T2 construct: Rat epididymal fat pads are excised and placed in 0.9% saline; from tissue; host or cells: adipocytes isolated by collagenase from rat epididymal fat pads
Kind of assay: Stimulation of adipocyte lipolysis (β3-effect), glycerol generated. The assay is classed as cell-based. As to conditions: rat epididymal adipocytes, 30 min at 37° C.; concentration giving 50% of the compound's own maximum rate of lipolysis; read-out: Lipolysis (beta3)(EC50 nM).
From the text: as §1, §2
The β3 -effect of the compounds is determined by their ability to stimulate adipocyte lipolysis. Rat epididymal fat pads are excised and placed in 0.9% saline. Four grams of tissue is transferred to a flask with 20 ml of aerated Krebs-Henseleit bicarbonate (KHB) buffer containing 3% fatty acid-free bovine serum albumin to which 75 mg of crude bacterial collagenase (Worthington) has been added. The tissue is incubated for about 45 minutes at 37° C. with gentle shaking. The cells are then washed three times with two volumes of KHB buffer, filtered through two layers of gauze, and brought to a final volume of 80 ml with KHB buffer. One ml aliquots of the cell suspension is added to plastic test tubes containing the appropriate additions of vehicle or compound. The cells are gassed for 1 minute with 95%O2 -5%CO2, capped, and incubated at 37° C. with continuous shaking for a total of 30 minutes. The reaction is stopped by adding 0.1 ml of 30% perchloric acid and 0.1 ml of chloroform. After centrifugation, 0.5 ml of supernatant is transferred to another test tube and neutralized with 0.04 ml of 3M K2 CO3 -0.5M triethanolamine. The amount of glycerol generated from the hydrolysis of endogenous triglycerides is determined in a coupled-enzyme spectrophotometric assay. One-tenth milliliter of the neutralized extract is added to a test tube that contains 0.91 ml of assay mixture comprised of the following: 0.84M glycine, 0.42M hydrazine sulfate, 4.2 mM EDTA, 0.9 mM β-NAD, 9.9 mM MgCl2, 1 mM ATP, 17 U of glycerophosphate dehydrogenase, and 4.3 U of glycerokinase. The test tubes are incubated for 40 minutes at 37° C. with constant shaking. The amount of NADH generated, which is proportional to the amount of glycerol, is determined by the increase in absorbance at 340 nm. […]

T1 sequence (P18090 whole entry): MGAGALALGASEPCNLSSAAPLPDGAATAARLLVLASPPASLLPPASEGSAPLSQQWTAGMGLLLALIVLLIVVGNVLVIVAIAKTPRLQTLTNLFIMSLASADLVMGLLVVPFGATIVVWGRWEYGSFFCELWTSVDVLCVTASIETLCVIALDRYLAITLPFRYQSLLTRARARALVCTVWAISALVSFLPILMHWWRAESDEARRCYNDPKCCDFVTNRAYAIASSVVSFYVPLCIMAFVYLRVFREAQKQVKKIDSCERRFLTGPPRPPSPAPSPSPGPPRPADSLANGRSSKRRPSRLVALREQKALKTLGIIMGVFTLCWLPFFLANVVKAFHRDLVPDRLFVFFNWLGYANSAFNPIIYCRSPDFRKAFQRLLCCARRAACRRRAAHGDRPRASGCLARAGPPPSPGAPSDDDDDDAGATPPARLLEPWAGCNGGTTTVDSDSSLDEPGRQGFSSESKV
T2 sequence (P26255 whole entry): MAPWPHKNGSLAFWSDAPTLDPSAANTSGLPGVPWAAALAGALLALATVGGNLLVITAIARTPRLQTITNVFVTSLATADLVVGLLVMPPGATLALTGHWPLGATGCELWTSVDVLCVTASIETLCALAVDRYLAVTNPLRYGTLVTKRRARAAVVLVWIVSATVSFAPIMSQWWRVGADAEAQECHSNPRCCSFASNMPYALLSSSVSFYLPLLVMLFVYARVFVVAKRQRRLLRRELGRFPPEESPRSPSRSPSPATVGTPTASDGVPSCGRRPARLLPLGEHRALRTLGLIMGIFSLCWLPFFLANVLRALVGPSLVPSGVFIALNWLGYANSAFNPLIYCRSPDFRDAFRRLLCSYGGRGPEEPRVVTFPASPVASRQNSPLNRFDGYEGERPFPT

One may read the IC50 as the midpoint of a concentration-inhibition curve. The term EC50 denotes the concentration needed to bring the measured effect to its halfway point. Take `O=C(O)C1(C(=O)O)Oc2ccc3c(c2O1)C[C@@H](NC[C@H](O)c1cccc(Cl)c1)C3` [Example 3, [R-(R*,R* or R*,S*)]7-[[2-(3-Chlorophenyl)-2-hydroxyethyl]amino]-7,8-dihydro-6H-indeno[4,5-d]-1,3-dioxole-2,2-dicarboxylic acid disodium salt]: the concentration for half-maximal inhibition (IC50) in assay [1] is over 1000 nM. In addition, the half-maximal effective concentration (EC50) in assay [2] came out at 2590 nM.
For `O=C(O)C1(C(=O)O)Oc2ccc3c(c2O1)C[C@H](NC[C@H](O)c1cccc(Cl)c1)C3` [Example 4, [R-(R*,R* or R*,S*)]-7-[[2-(3-Chlorophenyl)-2-hydroxyethyl]amino]-7,8-dihydro-6H-indeno[4,5-d]-1,3-dioxole-2,2-dicarboxylic acid disodium salt] the same measures were over 1000 nM and 14.6 nM.
For `O=C(O)C1(C(=O)O)Oc2cc3c(cc2O1)CC(NC[C@H](O)c1cccc(Cl)c1)C3` [Example 5, (R)-7-[[2-(3-Chlorophenyl)-2-hydroxyethyl]amino]7,8-dihydro-6H-indeno[5,6-d]-1,3-dioxole-2,2-dicarboxylic acid disodium salt] the same measures were over 1000 nM and 100 nM.
For `O=C(O)C1(C(=O)O)Oc2cc3c(cc2O1)CC(NCC(O)c1cccc(Cl)c1)CC3` (stereo not drawn) [Example 7, (R*,R*), and (R*,S*)-6-[[2-(3-Chlorophenyl)-2-hydroxyethyl]amino]-5,6,7,8-tetrahydronaphtho[2,3-d]-1,3-dioxole-2,3-dicarboxylic acid disodium salt] the same measures were over 1000 nM and 4000 nM.
